From patent US20110150836A1, “METHODS OF TREATING HBV AND HCV INFECTION” (Gilead Sciences, Inc., priority 2009, published 2011)

Tested on: cytokines and interferon-inducible genes
Assay: mRNA expression of cytokines and interferon-inducible genes in whole blood of healthy woodchucks (real time PCR)
Type: in vivo
Procedure: Compound A was administered orally to adult, WHV-negative woodchucks at two different doses. Three male woodchucks received Compound A at 0.05 mg/kg and three other male woodchucks at 0.5 mg/kg. Whole blood samples (4 mls) were collected from each woodchuck prior to dosing at T0, and then at 4, 8, 12, and 24 hours post-dose using EDTA-containing collection tubes.
The induction of an immune response in woodchucks following administration of Compound A was determined by measuring the mRNA expression of cytokines and interferon-inducible genes in whole blood samples collected at different time points. Total RNA was isolated using the QIAamp RNA Blood Mini Kit (Qiagen) according to the manufacturer's specifications. RNA was eluted into 40 μl nuclease-free water and stored at −70° C. The concentration of RNA was determined spectrophotometrically at OD 260 nm. Two μg of RNA were treated with DNase I (Invitrogen) and reverse transcribed to cDNA with MultiScribe Reverse Transcriptase (Applied Biosystems) using random hexamers. Triplicates of 2 μl cDNA were amplified by real time PCR on an ABI PRISM 7000 Sequence Detection instrument (Applied Biosystems) using SYBR GREEN Master Mix (Applied Biosystems) and woodchuck-specific primers. Amplified target genes included IFN-α, IFN-γ, TNF-α, IL-2, IL-6, IL-10 IL-12, 2′5′-OAS, IDO, and MxA. Woodchuck β-actin mRNA expression was used to normalize target gene expression. Transcription levels of woodchuck cytokines and interferon-inducible genes were represented by the formula 2ΔCt, where ΔCt indicates the difference in the threshold cycle between β-actin and target gene expression. Results were further represented as a fold-change from the transcription level at T0.

## CCCCOc1nc(N)c2nc(O)n(Cc3cccc(CN4CCCC4)c3)c2n1 [Compound A, 6-amino-2-butoxy-9-(3-(pyrrolidin-1-ylmethyl)benzyl)-9H-purin-8-ol]
Oral 0.05 mg/kg, 4 hrs
  2′5′-OAS mRNA expression in peripheral blood, Mean: 13.89
  2′5′-OAS mRNA expression, Fold-change from T0: 3.8 fold
  IDO mRNA expression in peripheral blood, Mean: 1.30
  IDO mRNA expression, Fold-change from T0: 1.1 fold
  IFN-a mRNA expression in peripheral blood, Mean: 7.21
  IFN-a mRNA expression, Fold-change from T0: 3.1 fold
  IFN-γ mRNA expression in peripheral blood, Mean: 2.03
  IFN-γ mRNA expression, Fold-change from T0: 1.6 fold
  IL-2 mRNA expression in peripheral blood, Mean: 2.11
  IL-2 mRNA expression, Fold-change from T0: 1.9 fold
  IL-6 mRNA expression in peripheral blood, Mean: 9.75
  IL-6 mRNA expression, Fold-change from T0: 2.3 fold
  IL-10 mRNA expression in peripheral blood, Mean: 4.14
  IL-10 mRNA expression, Fold-change from T0: 1.7 fold
  IL-12 mRNA expression in peripheral blood, Mean: 7.27
  IL-12 mRNA expression, Fold-change from T0: 4.5 fold
  MxA mRNA expression in peripheral blood, Mean: 2.26
  MxA mRNA expression, Fold-change from T0: 1.4 fold
  TNF-a mRNA expression in peripheral blood, Mean: 23.83
  TNF-a mRNA expression, Fold-change from T0: 3.5 fold
Oral 0.05 mg/kg, 8 hrs
  2′5′-OAS mRNA expression in peripheral blood, Mean: 16.96
  2′5′-OAS mRNA expression, Fold-change from T0: 4.8 fold
  IDO mRNA expression in peripheral blood, Mean: 2.05
  IDO mRNA expression, Fold-change from T0: 2.2 fold
  IFN-a mRNA expression in peripheral blood, Mean: 12.99
  IFN-a mRNA expression, Fold-change from T0: 4.2 fold
  IFN-γ mRNA expression in peripheral blood, Mean: 4.34
  IFN-γ mRNA expression, Fold-change from T0: 3.4 fold
  IL-2 mRNA expression in peripheral blood, Mean: 1.74
  IL-2 mRNA expression, Fold-change from T0: 1.5 fold
  IL-6 mRNA expression in peripheral blood, Mean: 10.57
  IL-6 mRNA expression, Fold-change from T0: 2.6 fold
  IL-10 mRNA expression in peripheral blood, Mean: 8.48
  IL-10 mRNA expression, Fold-change from T0: 3.4 fold
  IL-12 mRNA expression in peripheral blood, Mean: 7.35
  IL-12 mRNA expression, Fold-change from T0: 4.7 fold
  MxA mRNA expression in peripheral blood, Mean: 5.93
  MxA mRNA expression, Fold-change from T0: 3.8 fold
  TNF-a mRNA expression in peripheral blood, Mean: 20.72
  TNF-a mRNA expression, Fold-change from T0: 3.0 fold
Oral 0.05 mg/kg, 12 hrs
  2′5′-OAS mRNA expression in peripheral blood, Mean: 54.92
  2′5′-OAS mRNA expression, Fold-change from T0: 15.6 fold
  IDO mRNA expression in peripheral blood, Mean: 10.64
  IDO mRNA expression, Fold-change from T0: 7.7 fold
  IFN-a mRNA expression in peripheral blood, Mean: 3.82
  IFN-a mRNA expression, Fold-change from T0: 1.3 fold
  IFN-γ mRNA expression in peripheral blood, Mean: 2.64
  IFN-γ mRNA expression, Fold-change from T0: 2.0 fold
  IL-2 mRNA expression in peripheral blood, Mean: 2.43
  IL-2 mRNA expression, Fold-change from T0: 2.1 fold
  IL-6 mRNA expression in peripheral blood, Mean: 6.22
  IL-6 mRNA expression, Fold-change from T0: 1.5 fold
  IL-10 mRNA expression in peripheral blood, Mean: 7.35
  IL-10 mRNA expression, Fold-change from T0: 3.0 fold
  IL-12 mRNA expression in peripheral blood, Mean: 21.12
  IL-12 mRNA expression, Fold-change from T0: 12.7 fold
  MxA mRNA expression in peripheral blood, Mean: 18.70
  MxA mRNA expression, Fold-change from T0: 12.5 fold
  TNF-a mRNA expression in peripheral blood, Mean: 35.05
  TNF-a mRNA expression, Fold-change from T0: 5.2 fold
Oral 0.05 mg/kg, 24 hrs
  2′5′-OAS mRNA expression in peripheral blood, Mean: 36.91
  2′5′-OAS mRNA expression, Fold-change from T0: 11.9 fold
  IDO mRNA expression in peripheral blood, Mean: 26.71
  IDO mRNA expression, Fold-change from T0: 25.6 fold
  IFN-a mRNA expression in peripheral blood, Mean: 2.63
  IFN-a mRNA expression, Fold-change from T0: 1.0 fold
  IFN-γ mRNA expression in peripheral blood, Mean: 1.82
  IFN-γ mRNA expression, Fold-change from T0: 1.2 fold
  IL-2 mRNA expression in peripheral blood, Mean: 3.64
  IL-2 mRNA expression, Fold-change from T0: 3.2 fold
  IL-6 mRNA expression in peripheral blood, Mean: 4.30
  IL-6 mRNA expression, Fold-change from T0: 1.1 fold
  IL-10 mRNA expression in peripheral blood, Mean: 6.08
  IL-10 mRNA expression, Fold-change from T0: 2.3 fold
  MxA mRNA expression in peripheral blood, Mean: 117.33
  MxA mRNA expression, Fold-change from T0: 69.3 fold
  TNF-a mRNA expression in peripheral blood, Mean: 20.53
  TNF-a mRNA expression, Fold-change from T0: 3.2 fold
Oral 0.5 mg/kg, 4 hrs
  2′5′-OAS mRNA expression in peripheral blood, Mean: 33.05
  2′5′-OAS mRNA expression, Fold-change from T0: 6.5 fold
  IDO mRNA expression in peripheral blood, Mean: 22.67
  IDO mRNA expression, Fold-change from T0: 9.1 fold
  IFN-a mRNA expression in peripheral blood, Mean: 19.14
  IFN-a mRNA expression, Fold-change from T0: 3.9 fold
  IFN-γ mRNA expression in peripheral blood, Mean: 2.80
  IFN-γ mRNA expression, Fold-change from T0: 2.6 fold
  IL-2 mRNA expression in peripheral blood, Mean: 4.32
  IL-2 mRNA expression, Fold-change from T0: 2.2 fold
  IL-6 mRNA expression in peripheral blood, Mean: 21.84
  IL-6 mRNA expression, Fold-change from T0: 4.6 fold
  IL-10 mRNA expression in peripheral blood, Mean: 4.01
  IL-10 mRNA expression, Fold-change from T0: 1.5 fold
  IL-12 mRNA expression in peripheral blood, Mean: 5.74
  IL-12 mRNA expression, Fold-change from T0: 3.8 fold
  MxA mRNA expression in peripheral blood, Mean: 5.96
  MxA mRNA expression, Fold-change from T0: 3.6 fold
  TNF-a mRNA expression in peripheral blood, Mean: 43.18
  TNF-a mRNA expression, Fold-change from T0: 6.2 fold
Oral 0.5 mg/kg, 8 hrs
  2′5′-OAS mRNA expression in peripheral blood, Mean: 41.13
  2′5′-OAS mRNA expression, Fold-change from T0: 8.3 fold
  IDO mRNA expression in peripheral blood, Mean: 30.62
  IDO mRNA expression, Fold-change from T0: 11.6 fold
  IFN-a mRNA expression in peripheral blood, Mean: 48.85
  IFN-a mRNA expression, Fold-change from T0: 10.4 fold
  IFN-γ mRNA expression in peripheral blood, Mean: 7.81
  IFN-γ mRNA expression, Fold-change from T0: 6.7 fold
  IL-2 mRNA expression in peripheral blood, Mean: 3.12
  IL-2 mRNA expression, Fold-change from T0: 2.0 fold
  IL-6 mRNA expression in peripheral blood, Mean: 18.57
  IL-6 mRNA expression, Fold-change from T0: 4.6 fold
  IL-10 mRNA expression in peripheral blood, Mean: 17.31
  IL-10 mRNA expression, Fold-change from T0: 6.6 fold
  IL-12 mRNA expression in peripheral blood, Mean: 6.86
  IL-12 mRNA expression, Fold-change from T0: 4.2 fold
  MxA mRNA expression in peripheral blood, Mean: 12.86
  MxA mRNA expression, Fold-change from T0: 7.9 fold
  TNF-a mRNA expression in peripheral blood, Mean: 31.19
  TNF-a mRNA expression, Fold-change from T0: 4.5 fold
Oral 0.5 mg/kg, 12 hrs
  2′5′-OAS mRNA expression in peripheral blood, Mean: 884.87
  2′5′-OAS mRNA expression, Fold-change from T0: 185.6 fold
  IDO mRNA expression in peripheral blood, Mean: 89.01
  IDO mRNA expression, Fold-change from T0: 37.0 fold
  IFN-a mRNA expression in peripheral blood, Mean: 7.12
  IFN-a mRNA expression, Fold-change from T0: 1.5 fold
  IFN-γ mRNA expression in peripheral blood, Mean: 4.36
  IFN-γ mRNA expression, Fold-change from T0: 3.8 fold
  IL-6 mRNA expression in peripheral blood, Mean: 6.25
  IL-6 mRNA expression, Fold-change from T0: 1.4 fold
  IL-10 mRNA expression in peripheral blood, Mean: 14.92
  IL-10 mRNA expression, Fold-change from T0: 5.6 fold
  IL-12 mRNA expression in peripheral blood, Mean: 49.93
  IL-12 mRNA expression, Fold-change from T0: 30.1 fold
  MxA mRNA expression in peripheral blood, Mean: 71.77
  MxA mRNA expression, Fold-change from T0: 45.3 fold
  TNF-a mRNA expression in peripheral blood, Mean: 62.30
  TNF-a mRNA expression, Fold-change from T0: 9.0 fold
Oral 0.5 mg/kg, 24 hrs
  2′5′-OAS mRNA expression in peripheral blood, Mean: 64.27
  2′5′-OAS mRNA expression, Fold-change from T0: 14.4 fold
  IDO mRNA expression in peripheral blood, Mean: 1217.20
  IDO mRNA expression, Fold-change from T0: 454.2 fold
  IFN-a mRNA expression in peripheral blood, Mean: 4.15
  IFN-a mRNA expression, Fold-change from T0: 0.9 fold
  IFN-γ mRNA expression in peripheral blood, Mean: 2.16
  IFN-γ mRNA expression, Fold-change from T0: 1.9 fold
  IL-2 mRNA expression in peripheral blood, Mean: 13.38
  IL-2 mRNA expression, Fold-change from T0: 5.9 fold
  IL-6 mRNA expression in peripheral blood, Mean: 4.75
  IL-6 mRNA expression, Fold-change from T0: 1.2 fold
  IL-10 mRNA expression in peripheral blood, Mean: 8.74
  IL-10 mRNA expression, Fold-change from T0: 3.3 fold
  IL-12 mRNA expression in peripheral blood, Mean: 11.55
  IL-12 mRNA expression, Fold-change from T0: 7.0 fold
  MxA mRNA expression in peripheral blood, Mean: 758.52
  MxA mRNA expression, Fold-change from T0: 518.8 fold
  TNF-a mRNA expression in peripheral blood, Mean: 30.71
  TNF-a mRNA expression, Fold-change from T0: 4.5 fold
Oral 0.05 and 0.5 mg/kg
  mRNA expression of IFN-α, IFN-γ, TNF-alpha, IL-2, IL-6, IL-10, IL-12, 2′5′-OAS, IDO and MxA: induced dose-dependent increases in the mRNA expression
Oral dosing
  time of maximal mRNA expression of IFN-α, IFN-γ, IL-6, and IL-10: 8 hours post-dose
  time of maximal mRNA expression of IL-2, IDO, and MxA: 24 hours post-dose
  time of maximal mRNA expression of TNF-α, IL-12, and 2′5′-OAS: 12 hours post-dose
